Values belong to the compound of their own block, whether it stands above or below them.
Experiments:
[1] = Biolocalization two hours after delivery into a drilled hole in the femur; format: in vivo, Sprague Dawley rat; details: rat femur
Protocol: Ho-166 in 0.1M HCl was obtained from MURR. The pH was measured with pH paper showing a pH of about 1. A miniature drill was used to create a hole in the femur of an anesthetized Sprague Dawley rat. A miniature pump was used to deliver 3 μL of Ho-166 solution into the hole created by the drill. Two hours after the injection of the dose the rat was sacrificed and dissected. The amount of activity found in the site of injection was 5% of the injected dose. 52% of the dose was found in the liver and 23% of the dose was found in the rest of the bone.
A miniature drill was used to create a hole in the femur of an anesthetized Sprague Dawley rat. A miniature pump was used to deliver 2 μL of Sm-153-DOTMP solution into the hole created by the drill. Two hours after the injection of the dose the rat was sacrificed and dissected. The amount of activity found in the site of injection was 9% of the injected dose and about 20% was found in the rest of the bone. An average of 65% of the injected dose was found in the urine.

[2] = Biolocalization after injection into synovial cavity of right hind knee; format: in vivo, Sprague Dawley rats; details: Rats
Description: One method of this invention uses a therapeutically-effective quantity of the compositions of Formula (II) and Formula (III), administered in one or more locations into or near a Non-intracavitary, undesirable tissue mass (e.g. cancer) in an animal or human in need of such treatment. Another method of this invention uses a therapeutically-effective quantity of these hydroxy carbonates, administered in one or more locations into or near the synovial cavity to treat arthritis. In either method the treatment is such that a major portion of the dose remains at the site of injection (defined as greater than about 90% of the dose remaining at the site after two half-lives of the radioisotopes; more preferably greater than about 95% of the dose remaining at the site after 2 half-lives of the radioactive isotopes; and most preferably greater than about 98% of the dose remaining at the site after 2 half-lives of the radioisotopes) as determined by biolocalization data obtained by dissection of an animal (e.g. BALB/c mice or Sprague Dawley rats); wherein the values are corrected for radioactive decay. It is also important to recognize that deposition of radioactivity in non-target organs and tissues can impact the safety and efficacy of the treatment. Ideally, in mice, less than about 1% remaining in the carcass (including the contralateral femur) and less than about 0.2% in the liver plus the kidneys and, in rats, less than about 1% in the skeletal structure and less than about 0.2% in the liver plus the kidneys. In the case of mice (injection into the gastrocnemius muscle of the right hind leg is used as a model for Non-Intracavitary tumors), all tissues, including the whole carcass, and bedding were collected such that 100% of the radioactivity was accounted for. In the case of rats (injections were directly into the synovial cavity), the size of the animal precluded counting the entire carcass. Therefore samples of blood, muscle, and bone (contralateral femur) were collected and the total masses of those tissues were calculated. The tissue masses were calculated based on rat body weight using equations fitted to data in the literature [Henry H. Donaldson, The Rat: Reference Tables and Data for the Albino Rat and the Norway Rat, (1915)].
Six male Sprague Dawley rats, under Isoflurane anesthesia, were each injected with 20 μL of the Composition prepared according to the procedure of Example 1 into the synovial cavity of the right hind knee using a ⅓ cc insulin syringe. The dose was deposited into the cavity via needle insertion through the skin. The rats were individually housed in cages with absorbent paper under a wire mesh bottom. […]
Due to the size of the animals, the carcass was not collected and measured as was done for the mice. The % ID in the skeletal structure, muscular structure and blood in the body were calculated from the activity in samples of those tissues (left femur, left thigh, blood) and rat body weight using equations fitted to data in the literature as was described earlier.
Samples were counted for radioactivity on a PerkinElmer Wizard automated NaI well detector. The data, shown below in Table 1, indicate the average percent injected dose in each tissue/sample.

- amount of activity found in the site of injection [1]: 9 % of the injected dose
- dose found in the rest of the bone ([1]; two hours after injection): about 20%
- injected dose found in the urine ([1]; two hours after injection, average): 65 % of the injected dose
SMILES: O=P([O-])(O)CN1CCN(CP(=O)([O-])O)CCN(CP(=O)(O)O)CCN(CP(=O)([O-])O)CC1.[153Sm+3] [Sm-153-DOTMP]

- amount of activity found in the site of injection [1]: 5 % of the injected dose
- dose found in the liver ([1]; two hours after injection): 52 % of the dose
- dose found in the rest of the bone ([1]; two hours after injection): 23%
SMILES: [166Ho+3].[Cl-].[Cl-].[Cl-] [Example G, Ho-166 Chloride]

- Average % ID, Calculated Blood ([2]; 14 days): 0.0 % ID
- Average % ID, Calculated Muscle ([2]; 14 days): 0.3 % ID
- Average % ID, Calculated Skeleton ([2]; 14 days): 28.0 % ID
- Average % ID, Heart ([2]; 14 days): 0.0 % ID
- Average % ID, Kidney ([2]; 14 days): 0.4 % ID
- Average % ID, Leg (injection site) ([2]; 14 days): 31.2 % ID
- Average % ID, Lg. Intestine ([2]; 14 days): 0.0 % ID
- Average % ID, Liver ([2]; 14 days): 0.4 % ID
- Average % ID, Lung ([2]; 14 days): 0.0 % ID
- Average % ID, Sm. Intestine ([2]; 14 days): 0.0 % ID
- Average % ID, Spleen ([2]; 14 days): 0.0 % ID
- Average % ID, Stomach ([2]; 14 days): 0.0 % ID
- Average % ID, Urine/Feces ([2]; 14 days): 39.5 % ID
- Average % ID, Calculated Blood ([2]; 28 days): 0.0 % ID
- Average % ID, Calculated Muscle ([2]; 28 days): 0.1 % ID
- Average % ID, Calculated Skeleton ([2]; 28 days): 30.0 % ID
- Average % ID, Heart ([2]; 28 days): 0.0 % ID
- Average % ID, Kidney ([2]; 28 days): 0.3 % ID
- Average % ID, Leg (injection site) ([2]; 28 days): 22.6 % ID
- Average % ID, Lg. Intestine ([2]; 28 days): 0.0 % ID
- Average % ID, Liver ([2]; 28 days): 0.4 % ID
- Average % ID, Lung ([2]; 28 days): 0.0 % ID
- Average % ID, Sm. Intestine ([2]; 28 days): 0.0 % ID
- Average % ID, Spleen ([2]; 28 days): 0.0 % ID
- Average % ID, Stomach ([2]; 28 days): 0.0 % ID
- Average % ID, Urine/Feces ([2]; 28 days): 46.6 % ID
SMILES: O=C([O-])CN(CCN(CC(=O)[O-])CC(=O)[O-])CCN(CC(=O)[O-])CC(=O)[O-].[117Sn+4].[H+] [Example K]

Reference: patent publication US10918746B2, “Radioactive compositions and methods for their therapeutic use” (IsoTherapeutics Group LLC, priority 2011, dated 2021)
